Assay results: publication PMC10537185, “Dihydroxyphenyl- and Heteroaromatic-Based Thienopyrimidinones to Tackle HIV-1 LEDGF/p75-Dependent IN Activity” (Molecules, 2023)
Read-outs that look alike come from different tables or passages of the source.

Assays:
[1] = target: T1, HIV-1 RT-RNase H (Human immunodeficiency virus type 1 group M subtype B, UniProt P04585); assay: RNase H inhibitory assay (fluorescent RNA/DNA hybrid); format: biochemical; conditions: for IC50: wild type p66/p51 HIV-1 RT
T1 construct: preparation and purification of wild type p66/p51 HIV-1 RT; made in house
Protocol: The previously reported procedure was used for preparation and purification of wild type p66/p51 HIV-1 RT. Enzyme was stored in a 50% glycerol-containing buffer at −20 °C [32, 46]. An 18-nt 3′-fluorescein-labeled RNA annealed to a complementary 18-nt 5′-dabsyl-labeled DNA was used to determine IC50 values, following a previously described procedure. In brief, 1 μL of each inhibitor dissolved in DMSO was added to a 96-well plate, followed by 10 μL of the proper RT ([…]) in reaction buffer. The addition of 10 μL of RNA/DNA hybrid (2.5 μM) initiated the hydrolysis. Then, 50 mM Tris-HCl, pH 8.0, 60 mM KCl, 10 mM MgCl2, 1% DMSO, 150−800 ng of RT, 250 nM substrate, and increasing concentrations of inhibitor were chosen as final assay conditions. As negative control, wells containing only DMSO were used. Subsequently, the plates were incubated in a Spectramax Gemini EM fluorescence spectrometer for 10 min at 37 °C, measuring the fluorescence (λex = 485 nm; λem = 520 nm) at 1 min intervals in order to determine the linear initial rates in the presence (vi) and absence (vo) of inhibitor. Percent inhibition was assessed as 100(vo − vi)/vo and plotted against log[I]. Prism5 (GraphPad Software 5.0) was used to calculate the IC50 values. All assays were carried out in triplicate.

[2] = target: T2, HIV-1 IN LEDGF/p75-dependent activity (Human immunodeficiency virus type 1 group M subtype B, UniProt P04585); assay: HTRF LEDGF-dependent IN assay; format: biochemical; conditions: for IN inhibitory activity (in words): LEDGF/p75-dependent IN activity; for IC50: recombinant IN with LEDGF/p75, HTRF
T2 construct: Recombinant His and FLAG-IN proteins and His and FLAG-LEDGF proteins were expressed in Escherichia coli strain BL21 (DE3); His or FLAG (separate preparations); made in house; host or cells: Escherichia coli BL21 (DE3)
Protocol: Recombinant His and FLAG-IN proteins and His and FLAG-LEDGF proteins were expressed in Escherichia coli strain BL21 (DE3) and purified, as previously described.
IN activity in the presence of recombinant LEDGF/p75 protein were determined as described before. IN was pre-incubated in reaction buffer containing 20 mM HEPES pH 7.5, 1 mM DTT, 1% glycerol, 20 mM MgCl2, 0.05% Brij-35 and 0.1 mg/mL BSA with increasing concentration of compounds for 1 h at room temperature. After the addition to this mixture of 9 nM DNA donor substrate, 50 nM DNA acceptor substrate and 50 nM LEDGF/p75 protein (when required), the reaction was incubated at 37 °C for 90 min. The addition of 4 nM of Europium–Streptavidin to the reaction mixture provided the HTRF signal, which was recorded using a Perkin Elmer (Waltham, MA, USA) Victor 3 plate reader with 314 nm for excitation wavelength and 668 and 620 nm for the wavelength of the acceptor and the donor substrates emission, respectively.

[3] = target: T1, HIV-1 RT-RNase H; design: method as in PMID 23631411; conditions: cited from earlier work
[4] = target: T2, HIV-1 IN LEDGF/p75-dependent activity; design: method as in PMID 23631411; conditions: first experiment, 3,4-catechol analogue of 5; cited from earlier work

Row | Structure (SMILES) | IC50 [1] [µM] | IC50 [2] [µM] | further results
1 | Cc1sc2nc(-c3cccn3C)[nH]c(=O)c2c1C [Compound 28, 5,6-dimethyl-2-(1-methyl-1H-pyrrol-2-yl)thieno[2,3-d]pyrimidin-4(3H)-one] | 14.8 ± 0.6 | > 50 | IN inhibitory activity (in words) [2]: completely IN inactive
2 | Cc1sc2nc(-c3ccc(O)cc3O)[nH]c(=O)c2c1C [Compound 12, 2-(2,4-dihydroxyphenyl)-5,6-dimethylthieno[2,3-d]pyrimidin-4(3H)-one] | – | 22.3 ± 1.57 | –
3 | Cc1sc2nc(-c3ccc([N+](=O)[O-])s3)[nH]c(=O)c2c1C [Compound 25, 5,6-dimethyl-2-(5-nitrothiophen-2-yl)thieno[2,3-d]pyrimidin-4(3H)-one] | > 50 | 3.2 ± 0.8 | RNase H inhibitory activity (in words) [1]: completely inactive
4 | CC1CCCc2sc3nc(-c4ccc(O)c(O)c4)[nH]c(=O)c3c21 (stereo not shown) [Compound 19, 2-(3,4-dihydroxyphenyl)-5-methyl-5,6,7,8-tetrahydrobenzo[4,5]thieno[2,3-d]pyrimidin-4(3H)-one] | – | 5.9 ± 0.5 | –
5 | Cc1sc2nc(-c3cc(O)ccc3O)[nH]c(=O)c2c1C [Compound 13] | – | 85 ± 6 | –
6 | O=c1[nH]c(-c2ccc(O)c(O)c2)nc2sc3c(c12)CCCCC3 [Compound 9] | – | 18.3 ± 2.3 | IC50 [3]: 0.29 ± 0.11 µM
7 | O=c1[nH]c(-c2cccc(O)c2O)nc2sc3c(c12)CCCCC3 [Compound 15] | – | 24 ± 1 | –
8 | O=c1[nH]c(-c2ccc(O)cc2O)nc2sc3c(c12)CCCCC3 [Compound 16] | – | 10 ± 1 | –
9 | Cc1sc2nc(-c3ccc([N+](=O)[O-])o3)[nH]c(=O)c2c1C [Compound 23] | – | 4.6 ± 0.82 | IC50 [3]: 16.9 ± 1.7 µM
10 | O=c1[nH]c(-c2cc(O)ccc2O)nc2sc3c(c12)CCCCC3 [Compound 17] | – | 5.65 ± 0.15 | –
11 | Cc1sc2nc(-c3ccc(O)c(O)c3)[nH]c(=O)c2c1C [Compound 8, 2-(3,4-dihydroxyphenyl)-5,6-dimethylthieno[2,3-d]pyrimidin-4(3H)-one] | 0.26 ± 0.01 | 24.4 ± 2.6 | IC50 [3]: 0.26 ± 0.01 µM
12 | O=c1[nH]c(-c2cc(O)cc(O)c2)nc2sc3c(c12)CCCCC3 [Compound 18] | – | 3.37 ± 0.48 | –
13 | Cc1ccc(-c2nc3sc(C)c(C)c3c(=O)[nH]2)o1 [Compound 22, 5,6-dimethyl-2-(5-methylfuran-2-yl)thieno[2,3-d]pyrimidin-4(3H)-one] | 14.4 ± 0.2 | 8.75 ± 0.35 | –
14 | Cc1sc2nc(-c3cccs3)[nH]c(=O)c2c1C [Compound 24, 5,6-dimethyl-2-(thiophen-2-yl)thieno[2,3-d]pyrimidin-4(3H)-one] | 8.2 ± 1.3 | > 50 | IN inhibitory activity (in words) [2]: inactive
15 | Cc1sc2nc(-c3cccc(O)c3O)[nH]c(=O)c2c1C [Compound 10, 2-(2,3-dihydroxyphenyl)-5,6-dimethylthieno[2,3-d]pyrimidin-4(3H)-one] | – | 12.6 ± 1.29 | –
16 | Cc1sc2nc(-c3ccco3)[nH]c(=O)c2c1C [Compound 21, 2-(furan-2-yl)-5,6-dimethylthieno[2,3-d]pyrimidin-4(3H)-one] | 2.5 ± 0.1 | 5.75 ± 0.85 | –
17 | Cc1sc2nc(-c3c[nH]c4ccccc34)[nH]c(=O)c2c1C [Compound 26] | – | 2.85 ± 0.85 | IC50 [3]: 0.48 ± 0.6 µM
18 | Cc1sc2nc(-c3ccccc3O)[nH]c(=O)c2c1C [Compound 11, 2-(2-hydroxyphenyl)-5,6-dimethylthieno[2,3-d]pyrimidin-4(3H)-one] | – | 22 ± 2.8 | –
19 | Cc1sc2nc(-c3cc(O)cc(O)c3)[nH]c(=O)c2c1C [Compound 14, 2-(3,5-dihydroxyphenyl)-5,6-dimethylthieno[2,3-d]pyrimidin-4(3H)-one] | – | 3.7 ± 0.73 | –
20 | CCCc1c(C)sc2nc(-c3ccc(O)c(O)c3)[nH]c(=O)c12 [Compound 29] | – | – | IC50 [4]: > 50 µM
21 | Cc1sc2nc(-c3ccc[nH]3)[nH]c(=O)c2c1C [Compound 27, 5,6-dimethyl-2-(1H-pyrrol-2-yl)thieno[2,3-d]pyrimidin-4(3H)-one] | 35.3 ± 1.5 | > 50 | IN inhibitory activity (in words) [2]: completely IN inactive
22 | CC(C)Cc1csc2nc(-c3ccc(O)c(O)c3)[nH]c(=O)c12 [Compound 20, 2-(3,4-dihydroxyphenyl)-5-isobutylthieno[2,3-d]pyrimidin-4(3H)-one] | – | 8.5 ± 2.5 | –
